# How the values were obtained:
# DLD-1 = experiment: Cytotoxicity against human DLD1 cells assessed as reduction in cell viability; assay type: functional, cell-based
# MCF7 [1] = experiment: Cytotoxicity against human MCF7 cells assessed as reduction in cell viability; assay type: functional, cell-based
# [2] = biological target: Vascular endothelial growth factor receptor 2 (Homo sapiens, UniProt P35968); experiment: Inhibition of VEGFR2 (unknown origin)
# Caco-2 [3] = experiment: Antiproliferative activity against human Caco2 cells after 72 hrs by ELISA; assay type: functional, cell-based; details: Caco-2, 72 h
# HepG2 [4] = experiment: Antiproliferative activity against human HepG2 cells after 72 hrs by ELISA; assay type: functional, cell-based; details: HepG2, 72 h
# MCF7 [5] = experiment: Antiproliferative activity against human MCF7 cells after 72 hrs by ELISA; assay type: functional, cell-based; details: MCF7, 72 h
# DU-145 = experiment: Cytotoxicity against human DU145 cells assessed as reduction in cell viability after 24 hrs by MTT assay; assay type: functional, cell-based; details: DU-145, 24 h
# A549 [6] = experiment: Cytotoxicity against human A549 cells assessed as reduction in cell viability after 24 hrs by MTT assay; assay type: functional, cell-based; details: A549, 24 h
# SK-MEL-28 = experiment: Cytotoxicity against human SK-MEL-28 cells assessed as reduction in cell viability after 24 hrs by MTT assay; assay type: functional, cell-based; details: SK-MEL-28, 24 h
# BT-20 = experiment: Cytotoxicity against human BT20 cells assessed as reduction in cell viability after 24 hrs by MTT assay; assay type: functional, cell-based; details: BT-20, 24 h
# HeLa [7] = experiment: Cytotoxicity against human HeLa cells assessed as reduction in cell viability after 72 hrs by MTT assay; assay type: functional, cell-based
# K562 [8] = experiment: Cytotoxicity against human K562 cells assessed as reduction in cell viability after 72 hrs by MTT assay; assay type: functional, cell-based; details: K562, 72 h
# Caco-2 [9] = experiment: Cytotoxicity against human Caco2 cells assessed as reduction in cell viability after 72 hrs by MTT assay; assay type: functional, cell-based; details: Caco-2, 72 h
# MCF7 [10] = experiment: Cytotoxicity against human MCF7 cells assessed as reduction in cell viability by MTT assay; assay type: functional, cell-based; details: Homo sapiens, MCF7
# A549 [11] = experiment: Cytotoxicity against human A549 cells assessed as reduction in cell viability by MTT assay; assay type: functional, cell-based
# SN12C = experiment: Growth inhibition of human SN12C cells; assay type: functional
# MCF7 [12] = experiment: Growth inhibition of human MCF7 cells; assay type: functional
# HepG2 [13] = experiment: Growth inhibition of human HepG2 cells; assay type: functional
# SNU1 = experiment: Growth inhibition of human SNU1 cells; assay type: functional
# PANC-1 = experiment: Growth inhibition of human PANC1 cells; assay type: functional
# [14] = Growth inhibition of human KATO III cells; assay type: functional
# BXPC-3 = experiment: Growth inhibition of human BxPC3 cells; assay type: functional
# SK-OV-3 = experiment: Growth inhibition of human SKOV3 cells; assay type: functional
# T-24 = experiment: Growth inhibition of human T24 cells; assay type: functional
# WiDr = experiment: Growth inhibition of human WiDr cells; assay type: functional
# OVCAR-8 = experiment: Growth inhibition of human OVCAR8 cells; assay type: functional
# AGS = experiment: Growth inhibition of human AGS cells; assay type: functional
# [15] = biological target: RAC-alpha serine/threonine-protein kinase (Homo sapiens, UniProt P31749); experiment: Inhibition of AKT phosphorylation in human K562 cells; assay type: cell-based
# Chain of RAC-alpha serine/threonine-protein kinase (P31749 whole entry): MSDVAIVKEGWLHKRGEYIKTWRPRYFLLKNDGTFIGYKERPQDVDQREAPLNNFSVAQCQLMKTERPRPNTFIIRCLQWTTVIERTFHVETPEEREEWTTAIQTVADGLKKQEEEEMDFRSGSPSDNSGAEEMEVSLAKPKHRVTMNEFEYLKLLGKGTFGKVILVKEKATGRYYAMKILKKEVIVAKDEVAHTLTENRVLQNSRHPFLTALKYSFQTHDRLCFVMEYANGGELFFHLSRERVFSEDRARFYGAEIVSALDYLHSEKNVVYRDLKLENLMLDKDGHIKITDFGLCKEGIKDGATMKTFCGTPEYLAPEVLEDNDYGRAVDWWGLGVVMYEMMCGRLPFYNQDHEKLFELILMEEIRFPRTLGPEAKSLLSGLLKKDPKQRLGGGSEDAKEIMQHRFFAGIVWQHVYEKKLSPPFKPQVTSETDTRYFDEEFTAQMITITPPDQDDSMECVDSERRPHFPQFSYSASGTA
# K562 [16] = experiment: Cytotoxicity against human K562 cells assessed as reduction in cell viability after 68 hrs by MTT assay; assay type: functional, cell-based; details: K562, 68 h
# A549 [17] = experiment: Cytotoxicity against human A549 cells assessed as reduction in cell viability after 68 hrs by MTT assay; assay type: functional, cell-based; details: A549, 68 h
# HeLa [18] = experiment: Cytotoxicity against human HeLa cells assessed as reduction in cell viability after 68 hrs by MTT assay; assay type: functional, cell-based
# MCF7 [19] = experiment: Cytotoxicity against human MCF7 cells assessed as reduction in cell viability after 68 hrs by MTT assay; assay type: functional, cell-based; details: MCF7, 68 h
# HepG2 [20] = experiment: Cytotoxicity against human HepG2 cells assessed as reduction in cell viability after 48 hrs by MTT assay; assay type: functional, cell-based; details: HepG2, 48 h
# MCF7 [21] = experiment: Cytotoxicity against human MCF7 cells assessed as reduction in cell viability after 48 hrs by MTT assay; assay type: functional, cell-based; details: MCF7, 48 h
# HepG2 [22] = experiment: Cytotoxicity against human HepG2 cells assessed as reduction in cell viability by MTT assay; assay type: functional, cell-based; details: Homo sapiens, HepG2
# MDA-MB-231 = experiment: Cytotoxicity against human MDA-MB-231 cells assessed as reduction in cell viability after 96 hrs by MTT assay; assay type: functional, cell-based; details: MDA-MB-231, 96 h
# HT-29 = experiment: Cytotoxicity against human HT-29 cells assessed as reduction in cell viability after 96 hrs by MTT assay; assay type: functional, cell-based; details: HT-29, 96 h
# HCT-116 = experiment: Cytotoxicity against human HCT116 cells assessed as reduction in cell viability after 96 hrs by MTT assay; assay type: functional, cell-based; details: HCT-116, 96 h
# A2780 = experiment: Anticancer activity against human A2780 cells by CCK8 assay; assay type: functional, cell-based
# Hep 3B2 = experiment: Anticancer activity against human Hep3B cells by CCK8 assay; assay type: functional, cell-based
# OVCAR-3 = experiment: Anticancer activity against human OVCAR3 cells by CCK8 assay; assay type: functional, cell-based
# HepG2 [23] = experiment: Anticancer activity against human HepG2 cells by CCK8 assay; assay type: functional, cell-based
# Chain of Vascular endothelial growth factor receptor 2 (P35968 whole entry): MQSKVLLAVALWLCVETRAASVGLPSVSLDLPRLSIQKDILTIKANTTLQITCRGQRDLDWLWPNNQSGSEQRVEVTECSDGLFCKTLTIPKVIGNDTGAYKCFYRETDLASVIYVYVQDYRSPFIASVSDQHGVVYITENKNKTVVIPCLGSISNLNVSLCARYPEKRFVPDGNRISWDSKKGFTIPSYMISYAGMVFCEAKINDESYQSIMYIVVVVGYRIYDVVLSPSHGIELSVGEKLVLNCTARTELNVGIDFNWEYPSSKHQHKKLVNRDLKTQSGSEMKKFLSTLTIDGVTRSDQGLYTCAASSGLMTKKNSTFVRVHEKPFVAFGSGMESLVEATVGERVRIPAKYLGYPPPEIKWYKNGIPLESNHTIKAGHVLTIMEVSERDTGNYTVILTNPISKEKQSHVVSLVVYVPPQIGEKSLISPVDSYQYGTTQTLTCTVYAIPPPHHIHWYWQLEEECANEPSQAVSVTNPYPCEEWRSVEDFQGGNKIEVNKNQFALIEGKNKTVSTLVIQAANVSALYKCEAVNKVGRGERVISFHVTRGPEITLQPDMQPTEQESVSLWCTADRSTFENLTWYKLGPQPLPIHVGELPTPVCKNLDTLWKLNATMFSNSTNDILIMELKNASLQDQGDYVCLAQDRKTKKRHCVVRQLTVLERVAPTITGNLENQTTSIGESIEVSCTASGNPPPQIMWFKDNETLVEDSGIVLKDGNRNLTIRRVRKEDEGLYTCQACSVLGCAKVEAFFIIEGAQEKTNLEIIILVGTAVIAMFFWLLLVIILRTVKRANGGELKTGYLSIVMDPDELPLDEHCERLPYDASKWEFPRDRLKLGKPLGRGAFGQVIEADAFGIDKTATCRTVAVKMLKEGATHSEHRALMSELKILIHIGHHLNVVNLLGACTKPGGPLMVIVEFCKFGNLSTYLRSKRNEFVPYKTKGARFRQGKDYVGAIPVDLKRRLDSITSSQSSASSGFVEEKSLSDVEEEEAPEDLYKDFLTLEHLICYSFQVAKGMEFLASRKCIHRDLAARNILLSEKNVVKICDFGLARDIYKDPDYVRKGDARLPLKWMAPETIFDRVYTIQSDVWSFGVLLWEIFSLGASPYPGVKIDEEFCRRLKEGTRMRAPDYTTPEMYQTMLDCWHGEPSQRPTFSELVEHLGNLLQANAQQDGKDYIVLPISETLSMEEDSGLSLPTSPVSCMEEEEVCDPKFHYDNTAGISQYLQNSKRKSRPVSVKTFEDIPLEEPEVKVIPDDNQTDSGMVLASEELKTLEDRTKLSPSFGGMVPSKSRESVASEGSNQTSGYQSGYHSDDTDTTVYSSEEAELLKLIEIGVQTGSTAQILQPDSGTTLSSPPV
structure (smiles),measurement,setting,value
CN(C)c1ccc(C2CC(c3c(O)c4ccccc4oc3=O)=NN2c2nc(-c3ccccc3)c(/N=N/c3ccc(Cl)cc3)s2)cc1 (centres undefined),IC50,DLD-1,114 to 129 µM
same,IC50,MCF7 [1],5.41 to 6.56 µM
same,IC50,[2],5.41 µM
C/C(=N\Nc1ccccc1)c1ccc(NS(=O)(=O)c2ccc3oc(=O)ccc3c2)cc1,IC50,Caco-2 [3],8.53 µM
same,IC50,HepG2 [4],5.03 to 175 µM
same,IC50,MCF7 [5],5.03 to 175 µM
O=C(Cn1nc(Cc2ccc(Br)cc2)[nH]c1=O)NNC(=O)c1cc2cc(Cl)cc(Cl)c2oc1=O,IC50,DU-145,3.1 to 37.9 µg/mL
same,IC50,A549 [6],3.1 to 37.9 µg/mL
same,IC50,SK-MEL-28,3.1 to 37.9 µg/mL
same,IC50,BT-20,3.1 to 37.9 µg/mL
O=c1cc(Cn2cc(-c3ccccc3)nn2)c2cc(O)c(O)cc2o1,IC50,HeLa [7],9.7 to 81.9 µM
same,IC50,K562 [8],9.7 to 81.9 µM
same,IC50,Caco-2 [9],9.7 to 81.9 µM
O=C(CNCc1cccnc1)Nc1cc2ccccc2oc1=O,IC50,MCF7 [10],69.1 to 378 µM
same,IC50,A549 [11],69.1 to 378 µM
COc1ccccc1-c1cn(Cc2cc(=O)oc3cc(O)c(O)cc23)nn1,IC50,HeLa [7],9.7 to 81.9 µM
same,IC50,K562 [8],9.7 to 81.9 µM
same,IC50,Caco-2 [9],9.7 to 81.9 µM
O=C(Cn1nc(Cc2ccc(Cl)cc2)[nH]c1=O)NNC(=O)c1cc2cc(Cl)cc(Cl)c2oc1=O,IC50,DU-145,3.1 to 37.9 µg/mL
same,IC50,A549 [6],3.1 to 37.9 µg/mL
same,IC50,SK-MEL-28,3.1 to 37.9 µg/mL
same,IC50,BT-20,3.1 to 37.9 µg/mL
O=C(Cn1nc(Cc2ccc(Cl)c(Cl)c2)[nH]c1=O)NNC(=O)c1cc2cc(Cl)ccc2oc1=O,IC50,DU-145,3.1 to 37.9 µg/mL
same,IC50,A549 [6],3.1 to 37.9 µg/mL
same,IC50,SK-MEL-28,3.1 to 37.9 µg/mL
same,IC50,BT-20,3.1 to 37.9 µg/mL
Cc1ccc2[nH]c(-c3cc4ccccc4oc3=O)nc2c1,GI50,SN12C,0.07 to 3.57 µM
same,GI50,MCF7 [12],> 10 µM
same,GI50,HepG2 [13],0.07 to 3.57 µM
same,GI50,SNU1,0.07 to 3.57 µM
same,GI50,PANC-1,0.07 to 3.57 µM
same,GI50,[14],0.07 to 3.57 µM
same,GI50,BXPC-3,0.07 to 3.57 µM
same,GI50,SK-OV-3,0.07 to 3.57 µM
same,GI50,T-24,0.07 to 3.57 µM
same,GI50,WiDr,0.07 to 3.57 µM
same,GI50,OVCAR-8,0.07 to 3.57 µM
same,GI50,AGS,0.07 to 3.57 µM
COc1cccc(-c2cn(Cc3cc(=O)oc4cc(O)c(O)cc34)nn2)c1,IC50,HeLa [7],9.7 to 81.9 µM
same,IC50,K562 [8],9.7 to 81.9 µM
same,IC50,Caco-2 [9],9.7 to 81.9 µM
Cc1cc(=O)oc2cc(NC(=O)CNCc3cccnc3)ccc12,IC50,MCF7 [10],69.1 to 378 µM
same,IC50,A549 [11],69.1 to 378 µM
Cc1c(Cc2ccc(NC(=O)Nc3cccc(Cl)c3)nc2)c(=O)oc2cc(O)c(C(C)(C)C)cc12,IC50,[15],< 10 µM
same,IC50,K562 [16],1.66 to 9.27 µM
same,IC50,A549 [17],1.66 to 9.27 µM
same,IC50,HeLa [18],1.66 to 9.27 µM
same,IC50,MCF7 [19],1.66 to 9.27 µM
Cc1cc(-c2cc3cc(Cl)ccc3oc2=O)n(-c2nc(-c3ccc(Cl)cc3)cs2)n1,IC50,HepG2 [20],3.06 to 3.74 µM
same,IC50,MCF7 [21],4.03 to 31.5 µM
COc1ccc2oc(=O)c(-c3nc4cc(OC)ccc4[nH]3)cc2c1,GI50,SN12C,0.07 to 3.57 µM
same,GI50,MCF7 [12],> 10 µM
same,GI50,HepG2 [13],0.07 to 3.57 µM
same,GI50,SNU1,0.07 to 3.57 µM
same,GI50,PANC-1,0.07 to 3.57 µM
same,GI50,[14],0.07 to 3.57 µM
same,GI50,BXPC-3,0.07 to 3.57 µM
same,GI50,SK-OV-3,0.07 to 3.57 µM
same,GI50,T-24,0.07 to 3.57 µM
same,GI50,WiDr,0.07 to 3.57 µM
same,GI50,OVCAR-8,0.07 to 3.57 µM
same,GI50,AGS,0.07 to 3.57 µM
Cc1ccc(/N=N/c2sc(N3N=C(c4c(O)c5ccccc5oc4=O)CC3c3ccc(N(C)C)cc3)nc2-c2ccccc2)cc1 (centres undefined),IC50,DLD-1,114 to 129 µM
same,IC50,MCF7 [1],5.41 to 6.56 µM
same,IC50,[2],0.034 to 0.582 µM
Cc1ccc2oc(=O)cc(CSc3nc(-c4ccccc4)c(C#N)c(N4CCNCC4)n3)c2c1,IC50,HepG2 [22],5.5 to 91.1 µM
same,IC50,MCF7 [10],5.5 to 91.1 µM
Cc1ccc2oc(=O)cc(Cn3cc(CO[C@H]4O[C@@H]5O[C@@]6(C)CC[C@H]7[C@H](C)CC[C@@H]([C@H]4C)[C@@]57OO6)nn3)c2c1,IC50,MDA-MB-231,8.57 to 100 µM
same,IC50,HT-29,8.57 to 100 µM
same,IC50,HCT-116,8.57 to 100 µM
Cc1ccc2oc(=O)cc(CSc3nc(NCc4ccccc4)c(C#N)c(-c4ccccc4)n3)c2c1,IC50,HepG2 [22],5.5 to 91.1 µM
same,IC50,MCF7 [10],5.5 to 91.1 µM
CCN(CC)c1ccc2cc(C(=O)NCCNC(=O)CN3CCN(CCC[C@H]4O[C@@H]5O[C@@]6(C)CC[C@H]7[C@H](C)CC[C@@H]([C@H]4C)[C@@]57OO6)CC3)c(=O)oc2c1,IC50,A2780,2.33 to 23.7 µM
same,IC50,Hep 3B2,2.33 to 23.7 µM
same,IC50,OVCAR-3,2.33 to 23.7 µM
same,IC50,HepG2 [23],2.33 to 23.7 µM
C/C(=N\Nc1ccc([N+](=O)[O-])cc1[N+](=O)[O-])c1ccc(NS(=O)(=O)c2ccc3oc(=O)ccc3c2)cc1,IC50,Caco-2 [3],5.03 to 175 µM
same,IC50,HepG2 [4],5.03 to 175 µM
same,IC50,MCF7 [5],5.03 to 175 µM
